Data as given in publication PMC12467033, “Exploring the Inhibitory Potential of Six Porphyrin Compounds Against α-Amylase and α-Glucosidase Linked to Diabetes” (Biomolecules, 2025).

Columns and labels:
α-amylase [1] = target: T1, α-amylase (Sus scrofa, UniProt P00690); assay: Three-dimensional fluorescence spectroscopy of α-amylase complexes; conditions: 298 K; TAPP 2.5, THPP 10, TCPP 10, Fe–TCPP 12.5, Ni–TCPP 17.5, Cu–TCPP 10 μg/mL
T1 sequence (P00690 16-511): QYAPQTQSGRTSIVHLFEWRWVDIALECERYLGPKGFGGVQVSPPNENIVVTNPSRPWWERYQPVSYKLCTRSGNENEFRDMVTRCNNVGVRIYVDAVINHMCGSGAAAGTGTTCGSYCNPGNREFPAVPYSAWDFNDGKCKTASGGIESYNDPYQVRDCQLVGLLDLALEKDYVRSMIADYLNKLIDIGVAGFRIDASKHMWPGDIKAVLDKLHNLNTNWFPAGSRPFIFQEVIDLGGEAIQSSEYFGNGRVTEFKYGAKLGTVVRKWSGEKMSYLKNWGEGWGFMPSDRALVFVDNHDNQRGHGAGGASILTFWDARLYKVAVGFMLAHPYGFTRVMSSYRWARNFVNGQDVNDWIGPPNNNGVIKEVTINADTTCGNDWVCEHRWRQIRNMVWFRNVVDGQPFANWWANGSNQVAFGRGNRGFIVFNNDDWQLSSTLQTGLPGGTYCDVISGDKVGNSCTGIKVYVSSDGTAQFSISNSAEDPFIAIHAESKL

α-glucosidase [2] = target: T2, α-glucosidase (Saccharomyces cerevisiae, UniProt P53341); assay: Fluorescence quenching, binding and thermodynamics with α-glucosidase; conditions: for binding constants K: 310 K; for quenching mechanism of α-glucosidase fluorescence: Stern–Volmer plots; for quenching mechanism of α-glucosidase fluorescence / ΔH^0 / ΔS^0: 298–310 K; for ΔH^0 / ΔS^0: Van’t Hoff
Method: In the α-amylase experiment, a series of porphyrins and amylase (200 U/L) were mixed in a volume ratio of 1:1. In the α-glucosidase experiment, the glucosidase concentration was 400 U/L, mixed in a volume ratio of 1:1; the samples were maintained at three different temperatures (298, 304, and 310 K) for 30 min, with excitation at 280 nm and emission scanning from 300 to 500 nm.
The Stern–Volmer equation [35] was adopted to determine the quenching mechanisms between six porphyrin compounds and both enzymes in the experimental group, with Formula (6):(6) F0/F=1+Ksv[Q]=1+Kqτ0[Q]
The Stern–Volmer equation was adapted based on experimental data to more accurately characterize the quenching behavior [36], with Formula (7):(7) F0/F=e^Ksv[Q]=e^Kqτ0[Q]
In the formula, the fluorescence quenching ratio was calculated as F0/F, where F0 corresponds to the emission intensity of pure α-amylase solution (control) and F denotes the intensity measured after the incremental addition of porphyrin ligands. KSV and Kq denote the Stern–Volmer quenching constant and the bimolecular quenching rate constant, respectively, τ0 (10^−8 s) is the average fluorescence lifetime of the fluorophore in the absence of quencher, and [Q] indicates the concentration of porphyrin compounds.
Due to the presence of an internal filtration effect, a decrease in the fluorescence intensity of the system may occur. Therefore, all fluorescence data were corrected using Formula (8) to eliminate the internal filtration effect.(8) Fcor=Fobse^(Aex+Aem)/2
The evaluation of the interaction forces between porphyrin compounds and the two enzymes can be achieved by calculating thermodynamic parameters. When both ΔH^0 and ΔS^0 are positive, the predominant interaction force is hydrophobic. When both ΔH^0 and ΔS^0 are negative, the main forces are hydrogen bonding and van der Waals forces. When ΔH^0 < 0 and ΔS^0 > 0, the primary interaction is electrostatic attraction.
The thermodynamic parameters were calculated using Formulas (9) and (10), and then the Van’t Hoff plot for the interactions between the porphyrin compounds and the two enzymes was generated by plotting lnKa on the Y-axis versus 1/T on the X-axis.(9) lnKa=−ΔH^0/RT+ΔS^0/R (10) ΔG^0=ΔH^0−TΔS^0=−RTlnKa

α-glucosidase [3] = target: T2, α-glucosidase; assay: In vitro stability study (temperature, pH), inhibition rate against α-glucosidase; type: physicochemical; conditions: water bath 30–100 °C, 20 min
Method: (§1) Samples of a certain mass concentration were subjected to a water bath at different temperatures (30, 40, 50, 60, 70, 80, 90, 100 °C) for 20 min and treated under different pH conditions (2.0, 3.0, 4.0, 5.0, 6.0, 7.0, 8.0, 9.0, and 10.0) for 20 min to determine the effect of temperature and pH on the stability of the two enzymes.

α-amylase [4] = target: T1, α-amylase; assay: In vitro stability study (temperature, pH), inhibition rate against α-amylase; type: physicochemical; conditions: water bath 30–100 °C, 20 min
Method: as §1

α-glucosidase [5] = target: T2, α-glucosidase; assay: α-Glucosidase inhibitory activity assay (pNPG substrate); type: biochemical; conditions: 37 °C
Method: The experimental groups were supplemented with different concentrations of porphyrin compounds, followed by the addition of 100 μL of 5 mmol/L pNPG. After thorough mixing, the samples were pre-incubated at 37 °C for 10 min. Subsequently, the reaction was terminated by adding 0.1 mol/L of sodium carbonate (Na2CO3) solution. Following a 3 min reaction period, the absorbance of the solutions at 405 nm was measured using a microplate reader. The inhibition rate (%) was subsequently calculated using Formula (1).
Using the enzyme inhibition rate as the y-axis and the inhibitor concentration as the x-axis, the IC50 value was calculated through linear regression fitting with GraphPad Prism software (5.0).

HepG2 cells = assay: MTT cytotoxicity assay; type: cell-based, human; conditions: HepG2, 50–200 μg/mL, 24 h
Method: The cytotoxicity of six porphyrin compounds against human hepatocellular carcinoma HepG2 cells was evaluated using the MTT assay. HepG2 cells were seeded into 96-well plates at a density of 5000 cells per well and cultured for 24 h at 37 °C in a 5% CO2 incubator. Then, 100 µL of sample solutions at various concentrations (50, 100, and 200 µg/mL) was added to the experimental wells, with blank control wells and solvent control wells also included. The cells were further incubated for 24 h. After incubation, 10 µL of MTT solution (5 mg/mL) was added to each well, and the plates were incubated for another 4 h. Subsequently, 100 µL of Formazan solubilization solution was added to each well, followed by gentle mixing. The plates were returned to the incubator and maintained until complete dissolution of Formazan crystals was observed under a microscope. The absorbance at 570 nm was measured using a microplate reader (Meigu Molecular Instrument Company, Shanghai, China), and the survival rate of HepG2 cells was calculated.(12) Cell viability=As-Ab/Ac-Ab×100%
In the formula, As represents the absorbance of the sample well, Ac denotes the absorbance of the blank control well (without the drug), and Ab refers to the absorbance of the solvent control well (devoid of both cells and the drug).

T2 sequence (P53341 whole entry): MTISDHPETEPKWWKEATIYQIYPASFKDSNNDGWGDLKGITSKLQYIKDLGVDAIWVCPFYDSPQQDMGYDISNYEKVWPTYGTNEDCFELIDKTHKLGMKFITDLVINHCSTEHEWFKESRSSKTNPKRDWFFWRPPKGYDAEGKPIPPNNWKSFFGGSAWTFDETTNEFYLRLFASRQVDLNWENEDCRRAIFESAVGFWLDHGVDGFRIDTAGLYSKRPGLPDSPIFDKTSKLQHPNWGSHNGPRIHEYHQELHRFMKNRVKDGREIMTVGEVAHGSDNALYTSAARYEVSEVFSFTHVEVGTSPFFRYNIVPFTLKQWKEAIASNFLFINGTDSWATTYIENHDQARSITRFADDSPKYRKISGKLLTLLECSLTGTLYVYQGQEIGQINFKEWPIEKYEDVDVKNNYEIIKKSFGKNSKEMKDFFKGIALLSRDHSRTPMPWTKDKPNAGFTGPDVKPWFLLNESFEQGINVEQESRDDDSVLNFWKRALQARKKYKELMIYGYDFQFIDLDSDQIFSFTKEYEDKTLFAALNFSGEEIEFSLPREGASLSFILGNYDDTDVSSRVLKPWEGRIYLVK

Nc1ccc(-c2c3nc(c(-c4ccc(N)cc4)c4ccc([nH]4)c(-c4ccc(N)cc4)c4nc(c(-c5ccc(N)cc5)c5ccc2[nH]5)C=C4)C=C3)cc1 [TAPP]
Peak 1 Fluorescence Intensity (α-amylase [1]): 317.2
Peak 2 Fluorescence Intensity (α-amylase [1]): 7.013
binding constants K (α-glucosidase [2]): (0.65 ± 0.02) × 10^5 L·mol^−1
quenching mechanism of α-glucosidase fluorescence (α-glucosidase [2]): static quenching
Kq (α-glucosidase [2]; T 298 K): 6.25 ± 0.04 ×10^12 L/mol/s
Ksv (α-glucosidase [2]; T 298 K): 6.25 ± 0.04 ×10^4 L/mol
n (number of binding sites) (α-glucosidase [2]; T 298 K): 1.14
ΔG^0 (α-glucosidase [2]; T 298 K): -7.424 ± 0.019 kcal/mol
Kq (α-glucosidase [2]; T 304 K): 5.71 ± 0.01 ×10^12 L/mol/s
Ksv (α-glucosidase [2]; T 304 K): 5.71 ± 0.01 ×10^4 L/mol
n (number of binding sites) (α-glucosidase [2]; T 304 K): 1.09
ΔG^0 (α-glucosidase [2]; T 304 K): -7.165 ± 0.012 kcal/mol
Kq (α-glucosidase [2]; T 310 K): 5.66 ± 0.02 ×10^12 L/mol/s
Ksv (α-glucosidase [2]; T 310 K): 5.66 ± 0.02 ×10^4 L/mol
n (number of binding sites) (α-glucosidase [2]; T 310 K): 1.01
ΔG^0 (α-glucosidase [2]; T 310 K): -6.826 ± 0.012 kcal/mol
ΔH^0 (α-glucosidase [2]): -22.23 ± 0.019 kcal/mol
ΔS^0 (α-glucosidase [2]): −207.76 ± 0.14 J/mol/k

O=C(O)c1ccc(-c2c3nc(c(-c4ccc(C(=O)O)cc4)c4ccc([nH]4)c(-c4ccc(C(=O)O)cc4)c4nc(c(-c5ccc(C(=O)O)cc5)c5ccc2[nH]5)C=C4)C=C3)cc1 [TCPP]
thermal stability: inhibition rate against α-glucosidase (α-glucosidase [3]): remained relatively stable
Peak 1 Fluorescence Intensity (α-amylase [1]): 461.6
Peak 2 Fluorescence Intensity (α-amylase [1]): 58.06
binding constants K (α-glucosidase [2]): (0.97 ± 0.02) × 10^5 L·mol^−1
quenching mechanism of α-glucosidase fluorescence (α-glucosidase [2]): static quenching
Kq (α-glucosidase [2]; T 298 K): 7.45 ± 0.04 ×10^12 L/mol/s
Ksv (α-glucosidase [2]; T 298 K): 7.45 ± 0.04 ×10^4 L/mol
n (number of binding sites) (α-glucosidase [2]; T 298 K): 1.30
ΔG^0 (α-glucosidase [2]; T 298 K): -8.368 ± 0.014 kcal/mol
Kq (α-glucosidase [2]; T 304 K): 4.90 ± 0.02 ×10^12 L/mol/s
Ksv (α-glucosidase [2]; T 304 K): 4.90 ± 0.02 ×10^4 L/mol
n (number of binding sites) (α-glucosidase [2]; T 304 K): 1.19
ΔG^0 (α-glucosidase [2]; T 304 K): -7.651 ± 0.017 kcal/mol
Kq (α-glucosidase [2]; T 310 K): 4.22 ± 0.09 ×10^12 L/mol/s
Ksv (α-glucosidase [2]; T 310 K): 4.22 ± 0.09 ×10^4 L/mol
n (number of binding sites) (α-glucosidase [2]; T 310 K): 1.07
ΔG^0 (α-glucosidase [2]; T 310 K): -7.075 ± 0.012 kcal/mol
ΔH^0 (α-glucosidase [2]): -40.504 ± 0.0239 kcal/mol
ΔS^0 (α-glucosidase [2]): −451.52 ± 0.12 J/mol/k
thermal stability: inhibition rate against α-amylase (α-amylase [4]): small fluctuations

iron (III) meso-tetra (4-carboxyphenyl) porphyrin chloride [Fe–TCPP]
thermal stability: inhibition rate against α-glucosidase (α-glucosidase [3]): remained relatively stable
Peak 1 Fluorescence Intensity (α-amylase [1]): 270.8
Peak 2 Fluorescence Intensity (α-amylase [1]): 28.26
binding constants K (α-glucosidase [2]): (1.02 ± 0.02) × 10^5 L·mol^−1
quenching mechanism of α-glucosidase fluorescence (α-glucosidase [2]): static quenching
Ka (binding constant) (α-glucosidase [2]; T 298 K): 1.65 ± 0.03 ×10^5 L/mol
Kq (α-glucosidase [2]; T 298 K): 14.52 ± 0.07 ×10^12 L/mol/s
Ksv (α-glucosidase [2]; T 298 K): 14.52 ± 0.07 ×10^4 L/mol
n (number of binding sites) (α-glucosidase [2]; T 298 K): 1.01
ΔG^0 (α-glucosidase [2]; T 298 K): -7.113 ± 0.012 kcal/mol
Ka (binding constant) (α-glucosidase [2]; T 304 K): 1.26 ± 0.03 ×10^5 L/mol
Kq (α-glucosidase [2]; T 304 K): 13.18 ± 0.05 ×10^12 L/mol/s
Ksv (α-glucosidase [2]; T 304 K): 13.18 ± 0.05 ×10^4 L/mol
n (number of binding sites) (α-glucosidase [2]; T 304 K): 1.00
ΔG^0 (α-glucosidase [2]; T 304 K): -7.094 ± 0.017 kcal/mol
Ka (binding constant) (α-glucosidase [2]; T 310 K): 1.02 ± 0.02 ×10^5 L/mol
Kq (α-glucosidase [2]; T 310 K): 12.20 ± 0.07 ×10^12 L/mol/s
Ksv (α-glucosidase [2]; T 310 K): 12.20 ± 0.07 ×10^4 L/mol
n (number of binding sites) (α-glucosidase [2]; T 310 K): 0.98
ΔG^0 (α-glucosidase [2]; T 310 K): -7.103 ± 0.014 kcal/mol
ΔH^0 (α-glucosidase [2]): -7.385 ± 0.014 kcal/mol
ΔS^0 (α-glucosidase [2]): −3.88 ± 0.01 J/mol/k
IC50 α-GLU (α-glucosidase [5]): 23.93 ± 0.53 µg/mL
thermal stability: inhibition rate against α-amylase (α-amylase [4]): small fluctuations

Oc1ccc(-c2c3nc(c(-c4ccc(O)cc4)c4ccc([nH]4)c(-c4ccc(O)cc4)c4nc(c(-c5ccc(O)cc5)c5ccc2[nH]5)C=C4)C=C3)cc1 [THPP]
thermal stability: inhibition rate against α-glucosidase (α-glucosidase [3]): remained relatively stable
Peak 1 Fluorescence Intensity (α-amylase [1]): 297.5
Peak 2 Fluorescence Intensity (α-amylase [1]): 32.69
cytotoxicity (in words) (HepG2 cells): certain cytotoxic effects
binding constants K (α-glucosidase [2]): (3.39 ± 0.03) × 10^5 L·mol^−1
quenching mechanism of α-glucosidase fluorescence (α-glucosidase [2]): static quenching
Kq (α-glucosidase [2]; T 298 K): 7.40 ± 0.06 ×10^12 L/mol/s
Ksv (α-glucosidase [2]; T 298 K): 7.40 ± 0.06 ×10^4 L/mol
n (number of binding sites) (α-glucosidase [2]; T 298 K): 1.29
ΔG^0 (α-glucosidase [2]; T 298 K): -8.439 ± 0.0239 kcal/mol
Kq (α-glucosidase [2]; T 304 K): 6.97 ± 0.06 ×10^12 L/mol/s
Ksv (α-glucosidase [2]; T 304 K): 6.97 ± 0.06 ×10^4 L/mol
n (number of binding sites) (α-glucosidase [2]; T 304 K): 1.23
ΔG^0 (α-glucosidase [2]; T 304 K): -8.212 ± 0.022 kcal/mol
Kq (α-glucosidase [2]; T 310 K): 6.69 ± 0.04 ×10^12 L/mol/s
Ksv (α-glucosidase [2]; T 310 K): 6.69 ± 0.04 ×10^4 L/mol
n (number of binding sites) (α-glucosidase [2]; T 310 K): 1.16
ΔG^0 (α-glucosidase [2]; T 310 K): -7.844 ± 0.014 kcal/mol
ΔH^0 (α-glucosidase [2]): -23.22 ± 0.022 kcal/mol
ΔS^0 (α-glucosidase [2]): −207.25 ± 0.13 J/mol/k
thermal stability: inhibition rate against α-amylase (α-amylase [4]): small fluctuations
